Legend:
[1] = humans, oral and/or intravenous 10, 25, 50, 100 mg/kg; cited from earlier work
human NK(1) receptor = human NK(1) receptor (Homo sapiens, UniProt P25103); conditions: cited from earlier work
[2] = system: isolated guinea-pig mesenteric artery; assay: Relaxation of isolated mesenteric artery, pressure myograph (Ex 4); conditions: for relaxation / artery diameter: endothelium present (adenosine, AL: with or without); for relaxation of isolated intact mesenteric artery: luminal or abluminal, 0.001 to 1 mM
Procedure: Male guinea pigs (250-300 g) were anesthetised and placed in a cradle and the abdomen opened. Second order mesenteric artery branches were isolated and mounted in a pressure myograph (see FIG. 4) under constant pressure of 60 mmHg and perfusion (luminal flow) of 100 uL/min with Krebs-Henseleit buffer (37° C.). Artery diameter was continuously measured using videomicroscopy (see FIG. 4). For the relaxation/vasodilation experiments arteries were equilibrated and then constricted with 10^−8 M arginine vasopressin (AVP). Adenosine, lidocaine or adenosine-lidocaine together were administered 2) luminally and 2) abluminally and concentration curves were obtained. Stock solutions of adenosine and lidocaine alone or adenosine-lidocaine combined were made in deionized water to 20 mM. A range of volumes were pipetted to provide contact concentrations with the vessel lumen or outer wall that ranged from 0.001 to 1 mM. At the end of experiments, arteries were dilated using calcium-free solution to obtain 100% relaxation. A number of arteries were denuded by introducing 5 ml air into the lumen with flow rate 1000 μl/min. The air outflow was then clamped until the intraluminal pressure reached 70 mmHg, flow rate was reduced to 2 μl/min and the vessel remained pressurized for 10 minutes

Sequence of human NK(1) receptor (P25103 whole entry): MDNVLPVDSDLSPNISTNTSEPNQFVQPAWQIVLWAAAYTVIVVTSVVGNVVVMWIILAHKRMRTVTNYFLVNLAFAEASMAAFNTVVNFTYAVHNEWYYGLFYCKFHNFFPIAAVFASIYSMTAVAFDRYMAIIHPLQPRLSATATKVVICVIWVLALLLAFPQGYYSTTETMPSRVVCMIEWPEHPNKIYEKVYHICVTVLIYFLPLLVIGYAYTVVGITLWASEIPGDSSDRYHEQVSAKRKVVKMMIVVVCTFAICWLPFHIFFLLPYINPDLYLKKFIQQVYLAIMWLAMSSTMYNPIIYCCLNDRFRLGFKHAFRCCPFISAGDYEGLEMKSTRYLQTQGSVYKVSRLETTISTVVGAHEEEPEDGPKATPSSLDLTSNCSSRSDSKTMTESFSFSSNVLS

For NC(=O)c1ncn([C@@H]2O[C@H](CO)[C@@H](O)[C@H]2O)c1N [Acadesine, 5-amino-4-imidazole carboxamide ribonucleoside], the safety [1] is listed as “safe in humans”.
For Cc1cccc(C)c1NC(=O)CN1CCN(C2CCN(C(=O)c3cc(C(F)(F)F)cc(C(F)(F)F)c3)C(Cc3ccccc3)C2)CC1 (centres unmarked) [R116301], the Ki (human NK(1) receptor) is listed as 0.45 nM and the “selectivity toward NK(2) and NK(3) receptors” value (human NK(1) receptor) is listed as “over 200 fold”.
With Nc1ncnc2c1ncn2[C@@H]1O[C@H](CO)[C@@H](O)[C@H]1O [adenosine] the “relaxation / artery diameter” value [2] was “relaxed the mesenteric artery in a dose dependent manner” and the “relaxation of isolated intact mesenteric artery” value [2] was “increased relaxation”.
For CCN(CC)CC(=O)Nc1c(C)cccc1C [lidocaine], the relaxation ([2]; endothelium absent) was “relaxed the artery”, the “relaxation / artery diameter” value [2] was “did not significantly change mesenteric artery diameter” and the “relaxation of isolated intact mesenteric artery” value [2] was “failed to produce relaxation”.

— patent US20160166598A1, “A METHOD FOR TREATING INFECTION, SEPSIS AND INJURY” (priority 2013, published 2016)
